# Assay results: US4542153A, “Methods for changing calcium metabolism within the cells of a mammal” (The Ohio State University Research Foundation, priority 1983, dated 1985)
# Entries after “also recorded” stand apart in the source; their conditions may differ.
# How the values were obtained:
# arrhythmia in mammals = conditions: in vivo
# [1] = test system: calcium-induced arrhythmias in rats; experiment: Calcium-induced arrhythmias (CaCl2 injected i.v. into anesthetized rats)
# Excerpt: The experimental method used was that described in Lynch J. J., Rahwan R. G., Witiak D. T.: Effects of 2-substituted-3-dimethylamino-5,6-methylenedioxyindenes on calcium-inducedarrhythmias, J. Cardiovasc. Pharmacol. 3: 49-60 (1981). Male Sprague-Dawley rats weighing 180-250 grams were anesthetized with sodium pentobarbital and a cannula was inserted into the left jugular vein for drug administration. Electrocardiograph equipment was connected to the rat and the lead II was continuously monitored. The compound under test, dissolved in 5% dextrose solution, was administered into the jugular vein of anesthetized rats over a 40 second period. Ten minutes after this treatment, an acute dose of 1 ml/kg of a 10% CaCl2.2H2 O solution was injected into the jugular vein over a period of 10 seconds. The arrhythmias resulting from the calcium administration were graded according to the following criteria: (a) initial change in heart rate following calcium administration; (b) incidences of sinoatrial block, atrioventricular block, ectopic beats, and ventricular flutter and fibrillation; (c) time required for reversion to control ECG; and (d) incidence of mortality.
# [2] = test system: spontaneously beating right atria; experiment: Effects on isolated guinea pig atria: spontaneously beating right atria; assay type: cell-based
# Excerpt: The effects of pr-MDI, bu-MDI and Q-bu-MDI on the mechanical and electrical behavior of isolated guinea pig atria were investigated by the method of H. Nawrath, J. Pharmacol. Exp. Ther., 16, 176-182 (1980). The compounds were investigated over the concentration range of 10^-8 to 3×10^-4 M.
# English short-haired guinea pigs, supplied by Carr Animal Supply, of Powell, Ohio, weighing 300-600 g. were killed by a blow on the head and both atria of the animal were quickly dissected out and suspended in a water-jacketed organ bath containing Krebs-Henseleit solution through which a 95% oxygen/5% carbon dioxide mixture was bubbled at 32° C. The solution contained 6.92 g/l of sodium chloride, 0.35 g/l of potassium chloride, 0.29 g/l of magnesium […] heptahydrate, 0.3 g/l of calcium chloride dihydrate, 0.16 g/l of potassium dihydrogen phosphate, 2.1 g/l of sodium bicarbonate and 2.1 g/l of dextrose. The contractile force generated by the isolated artria was recorded isometrically under a 500 mg. preload using a Narco Biosystems force transducer connected to a physiograph DMP-4B recorder, both the transducer and the recorder being obtained from E & M Instrument Co. of Houston, Texas.
# Spontaneously beating right atria were tested in a similar manner.
# [3] = test system: thoracic aorta strips contracted with potassium chloride; experiment: Vasodilator activity: potassium chloride-contracted aortic strips; assay type: cell-based, male Sprague-Dawley rats; conditions: rat aorta contracted with 40 mM potassium chloride; read-out: IC50 (mean and range of SEM) KCl
# Excerpt: Pr-MDI, bu-MDI, Q-bu-MDI and the compounds of Formulae IIIA, IIIB and IVA having the two R1 groups together forming a methylene group, each R3 a methyl group and R2 an n-propyl group or n-butyl group (the compounds of Formula III are hereinafter abbreviated as sat-pr-MDI and sat-bu-MDI respectively, reference being made where necessary to the cis isomer of Formula III A or the trans isomer of Formula III B while the compounds of Formula IV are similarly referred to as cis sat-Q-pr-MDI and cis sat-Q-bu-MDI) were tested for vasodilator activity by the method of R. F. Furchgott and S. Bhadrakom, J. P. Pharmacol. Ex. Ther., 108, 129-143 (1953).
# The vasodilator activity tests were conducted on male Sprague-Dawley rats, obtained from Harlan Industries, Inc., Cumberland, Indiana. The rats, weight 250-300 g., were sacrified by cervical dislocation and a 2.5 cm. segment of the thoracic aorta was removed and rinshed in physiological buffer. Each aortic segment was cleaned of connective tissue and cut spirally two yield to strips, each 3 by 15 mm. Each strip was mounted isometrically under a tension of 1 g in a 10 ml. tissue bath thermostatically maintained at 37° C. and containing a normal physiological solution aerated with a 95% oxygen/5% carbon dioxide mixture. Forces generated by the strip were monitored using a Grass FT03 isometric transducer coupled to a Grass module 7D polygraph recorder, both the transducer and the recorder being obtained from Grass Instrument Co., of Quincy, Mass.
# After the aortic tissue had been allowed to equilibriate for 1-1.5 hours in the normal physiologic solution, tissue contraction was induced by introducing either 10^-7 M norepinephrine or 40mM potassium chloride buffer to the tissue bath.
# To avoid interference by loss of tension due to time dependent tissue fatigue, separate preliminary experiments were performed to determine the degree of tissue relaxation due to such fatigue and the value of the control tension generated by norepinephrine or potassium chloride prior to the addition of the test compounds was adjusted whenever the duration of the experiment was such that fatigue could be expected to cause more than a 6% loss of tension. […] All concentrations mentioned hereinafter represent the final concentration of the test compound after dilution in the tissue bath.
# The figures of concentration against percent response data obtained from each aortic tissue were transformed to its appropriate probit value and IC50 values were then estimated using linear regression analysis. The normal physiological solution contained 6.9 g/l of sodium chloride, 0.35 g/l of potassium chloride, 0.11 g/l of magnesium chloride hexahydrate, 0.138 g/l of sodium dihydrogen phosphate, 2.1 g/l of sodium bicarbonate, 0.01 g/l of EDTA, 0.368 g/l of calcium chloride dihydrate and 2.0 g/l of dextrose. The high potassium buffers were obtained by substituting potassium chloride for sodium chloride on an equimolar basis to maintain tonicity.
structure (smiles),measurement,setting,value
"CCCCC1=Cc2cc3c(cc2C1[N+](C)(C)C)OCO3.[I-] (stereo not shown) [Q-bu-MDI, 2-Butyl-5,6-methylenedioxyindene-1-trimethylammonium iodide]","effectiveness relative to tertiary analog (bu-MDI), average over tests",arrhythmia in mammals,about four
same,mortality rate,"[1]; 0.5 mg/kg, i.v.",zero
same,protection against arrhythmia,"[1]; 0.5 mg/kg, i.v.",almost complete protection
same,protection against calcium-induced mortality,"[1]; 0.5 mg/kg, i.v.",complete protection against calcium-induced mortality
same,protection against the calcium-induced bradycardia,"[1]; 0.5 mg/kg, i.v.",partial protection
same,time for reversion to a normal electrocardiogram,"[1]; 0.5 mg/kg, i.v.",significantly reduced
same,effectiveness in suppressing arrhythmias relative to pr-MDI and bu-MDI,[1]; calcium-induced arrhythmias,7-8 times
same,concentration effective against calcium-induced arrhythmias,"[1]; i.v., 10 min before CaCl2",0.5 mg/kg
same,deleterious side effects,"[1]; i.v., Q-bu-MDI at 0.5 mg/kg, pr-MDI and bu-MDI at 3.75 mg/kg",no substantial deleterious side effects
same,effect on the contractile force of right atria at the highest concentration,[2]; 3×10^-4 M,positive inotropy
same,effect on spontaneous atrial rate,[2]; 10^-8 to 3×10^-4 M,only a slight decrease in the spontaneous atrial rate; also recorded: much less than the other two compounds
same,effect on the contractile force of right atria,[2]; except at 3×10^-4 M for Q-bu-MDI,minimal effects on the contractile force of right atria
same,IC50,[3],169 µM
